Measured values as given in patent US9833497B2, “Human originated EGF domain proteins and use of the same” (CHENGDU SOURCEBIO LIMITED-LIABILITY COMPANY, priority 2013, dated 2017).

Assays:
Type in all cases: cell-based
Pseudomonas aeruginosa = test: MIC against Gram-negative bacteria: Pseudomonas aeruginosa; settings: 5×10^5 CFU/mL
How it was run: (§1)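 Antibacterial activity of purified human EGF domain proteins: two-fold concentration series, triplicate wells, LB broth, 5×10^5 CFU/mL bacteria, 37° C shaking incubation. The lowest concentration without growth defines the MIC.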

Enterobacter cloacae = test: MIC against Gram-negative bacteria: Enterobacter cloacae; settings: 5×10^5 CFU/mL
How it was run: as §1

E. coli DH5α = test: Antibacterial activity: MIC and growth curve against E. coli DH5α in 96-well plate; settings: minimal inhibitory concentration against E. coli DH5α; 96-well plate, 5×10^5 CFU/mL, 37° C., judged after 8 h
How it was run: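 Log-phase bacteria (OD600 ~0.5) resuspended in LB at 5×10^5 CFU/mL, exposed to recombinant protein at 50, 25, 12.5 μg/mL final in triplicate, 37 °C shaking at 175 rpm. OD600 read every 30 min; MIC is lowest concentration showing no growth.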

Proteus vulgaris = test: MIC against Gram-negative bacteria: Proteus vulgaris; settings: 5×10^5 CFU/mL
How it was run: as §1

Klebsiella pneumonia = test: MIC against Gram-negative bacteria: Klebsiella pneumonia; settings: 5×10^5 CFU/mL
How it was run: as §1

Proteus mirabilis = test: MIC against Gram-negative bacteria: Proteus mirabilis; settings: 5×10^5 CFU/mL
How it was run: as §1

Citrobacter diversus = test: MIC against Gram-negative bacteria: Citrobacter diversus; settings: 5×10^5 CFU/mL
How it was run: as §1

Moraxella catarrhalis = test: MIC against Gram-negative bacteria: Moraxella catarrhalis; settings: 5×10^5 CFU/mL
How it was run: as §1

E. coli BL21 = test: MIC against Gram-negative bacteria: E. coli BL21; settings: 5×10^5 CFU/mL
How it was run: as §1

Aeromonas hydrophila = test: MIC against Gram-negative bacteria: Aeromonas hydrophila; settings: 5×10^5 CFU/mL
How it was run: as §1

Serratia marcescens = test: MIC against Gram-negative bacteria: Serratia marcescens; settings: 5×10^5 CFU/mL
How it was run: as §1

[1] = Pseudomonas aeruginosa, 96-well plate, 37° C., 10 h
[2] = Enterobacter cloacae, 96-well plate, 37° C., 10 h
[3] = Proteus vulgaris, 96-well plate, 37° C., 10 h
[4] = Klebsiella pneumonia, 96-well plate, 37° C., 10 h
[5] = Proteus mirabilis, 96-well plate, 37° C., 10 h
[6] = Citrobacter diversus, 96-well plate, 37° C., 10 h
[7] = Moraxella catarrhalis, 96-well plate, 37° C., 10 h
[8] = E. coli BL21, 96-well plate, 37° C., 10 h
[9] = Aeromonas hydrophila, 96-well plate, 37° C., 10 h
[10] = Serratia marcescens, 96-well plate, 37° C., 10 h

PRT182 (QQPICLSGCHEQNGYCSKPAECLCRPGWQGRLCN; listed as Homo sapiens)
MIC (μg/mL) P. aeruginosa (Pseudomonas aeruginosa; P. aeruginosa, 10 h cultivation at 37° C.): 25 µg/mL | MIC (μg/mL) E. cloacae (Enterobacter cloacae; E. cloacae, 10 h cultivation at 37° C.): 25 µg/mL | MIC (E. coli DH5α): 12.5 µg/mL | MIC (μg/mL) P. vulgaris (Proteus vulgaris; P. vulgaris, 10 h cultivation at 37° C.): 12.5 µg/mL | MIC (μg/mL) K. pneumonia (Klebsiella pneumonia; K. pneumonia, 10 h cultivation at 37° C.): 12.5 µg/mL | MIC (μg/mL) P. mirabilis (Proteus mirabilis; P. mirabilis, 10 h cultivation at 37° C.): 25 µg/mL | MIC (μg/mL) C. diversus (Citrobacter diversus; C. diversus, 10 h cultivation at 37° C.): 25 µg/mL | MIC (μg/mL) M. catarrhalis (Moraxella catarrhalis; M. catarrhalis, 10 h cultivation at 37° C.): 100 µg/mL | MIC (μg/mL) E. coli BL21 (E. coli BL21; E. coli BL21, 10 h cultivation at 37° C.): 12.5 µg/mL | MIC (μg/mL) A. hydrophila (Aeromonas hydrophila; A. hydrophila, 10 h cultivation at 37° C.): 12.5 µg/mL | MIC (μg/mL) S. marcescens (Serratia marcescens; S. marcescens, 10 h cultivation at 37° C.): 25 µg/mL

PRT608 (CDCNGRSQECYFDPELYRSTGHGGHCTNCQDNTDGAHCERCRENFFRLGNNEACSS; listed as Homo sapiens)
MIC P. aeruginosa (Pseudomonas aeruginosa; 96-well plate, 37° C., 10 h): 12.5 µg/mL | MIC E. cloacae (Enterobacter cloacae; 96-well plate, 37° C., 10 h): 25 µg/mL | MIC (E. coli DH5α): 12.5 µg/mL | MIC P. vulgaris (Proteus vulgaris; 96-well plate, 37° C., 10 h): 12.5 µg/mL | MIC K. pneumonia (Klebsiella pneumonia; 96-well plate, 37° C., 10 h): 50 µg/mL | MIC P. mirabilis (Proteus mirabilis; 96-well plate, 37° C., 10 h): 25 µg/mL | MIC C. diversus (Citrobacter diversus; 96-well plate, 37° C., 10 h): 25 µg/mL | MIC M. catarrhalis (Moraxella catarrhalis; 96-well plate, 37° C., 10 h): 50 µg/mL | MIC E. coli BL21 (E. coli BL21; 96-well plate, 37° C., 10 h): 50 µg/mL | MIC A. hydrophila (Aeromonas hydrophila; 96-well plate, 37° C., 10 h): 12.5 µg/mL | MIC S. marcescens (Serratia marcescens; 96-well plate, 37° C., 10 h): 25 µg/mL

PRT1292 (NVDDCEDNDCENNSTCVDGINNYTCLCPPEYTGELCE; listed as Homo sapiens)
MIC against P. aeruginosa (Pseudomonas aeruginosa; [1]): 12.5 µg/mL | MIC against E. cloacae (Enterobacter cloacae; [2]): 50 µg/mL | MIC (E. coli DH5α): 12.5 µg/mL | MIC against P. vulgaris (Proteus vulgaris; [3]): 50 µg/mL | MIC against K. pneumonia (Klebsiella pneumonia; [4]): 12.5 µg/mL | MIC against P. mirabilis (Proteus mirabilis; [5]): 12.5 µg/mL | MIC against C. diversus (Citrobacter diversus; [6]): 12.5 µg/mL | MIC against M. catarrhalis (Moraxella catarrhalis; [7]): 50 µg/mL | MIC against E. coli BL21 (E. coli BL21; [8]): 12.5 µg/mL | MIC against A. hydrophila (Aeromonas hydrophila; [9]): 25 µg/mL | MIC against S. marcescens (Serratia marcescens; [10]): 12.5 µg/mL

PRT130 (ITDRCLPSYCEHGGECSQSWDTFSCDCLGTGYTGETCH; listed as Homo sapiens)
MIC (μg/mL) P. aeruginosa (Pseudomonas aeruginosa; [1]): 12.5 µg/mL | MIC (μg/mL) E. cloacae (Enterobacter cloacae; [2]): 12.5 µg/mL | MIC (E. coli DH5α): 12.5 µg/mL | MIC (μg/mL) P. vulgaris (Proteus vulgaris; [3]): 50 µg/mL | MIC (μg/mL) K. pneumonia (Klebsiella pneumonia; [4]): 25 µg/mL | MIC (μg/mL) P. mirabilis (Proteus mirabilis; [5]): 12.5 µg/mL | MIC (μg/mL) C. diversus (Citrobacter diversus; [6]): 50 µg/mL | MIC (μg/mL) M. catarrhalis (Moraxella catarrhalis; [7]): 25 µg/mL | MIC (μg/mL) E. coli BL21 (E. coli BL21; [8]): 25 µg/mL | MIC (μg/mL) A. hydrophila (Aeromonas hydrophila; [9]): 25 µg/mL | MIC (μg/mL) S. marcescens (Serratia marcescens; [10]): 12.5 µg/mL

PRT562 (CQCHNNIDTTDPEACDKETGRCLKCLYHTEGEHCQFCRFGYYGDALQQDCRK; listed as Homo sapiens)
MIC against P. aeruginosa (Pseudomonas aeruginosa; 96-well plate, 37° C., 10 h): 50 µg/mL | MIC against E. cloacae (Enterobacter cloacae; 96-well plate, 37° C., 10 h): 50 µg/mL | MIC (E. coli DH5α): 50 µg/mL | MIC against P. vulgaris (Proteus vulgaris; 96-well plate, 37° C., 10 h): 25 µg/mL | MIC against K. pneumonia (Klebsiella pneumonia; 96-well plate, 37° C., 10 h): 25 µg/mL | MIC against P. mirabilis (Proteus mirabilis; 96-well plate, 37° C., 10 h): 12.5 µg/mL | MIC against C. diversus (Citrobacter diversus; 96-well plate, 37° C., 10 h): 50 µg/mL | MIC against M. catarrhalis (Moraxella catarrhalis; 96-well plate, 37° C., 10 h): 25 µg/mL | MIC against E. coli BL21 (E. coli BL21; 96-well plate, 37° C., 10 h): 25 µg/mL | MIC against A. hydrophila (Aeromonas hydrophila; 96-well plate, 37° C., 10 h): 25 µg/mL | MIC against S. marcescens (Serratia marcescens; 96-well plate, 37° C., 10 h): 50 µg/mL

PRT1338 (EMDPCTGLTPGGCSRNAECIKTGTGTHTCVCQQGWTGNGRDCS; listed as Homo sapiens)
MIC against P. aeruginosa (Pseudomonas aeruginosa; [1]): 12.5 µg/mL | MIC against E. cloacae (Enterobacter cloacae; [2]): 50 µg/mL | MIC (E. coli DH5α): 50 µg/mL | MIC against P. vulgaris (Proteus vulgaris; [3]): 12.5 µg/mL | MIC against K. pneumonia (Klebsiella pneumonia; [4]): 25 µg/mL | MIC against P. mirabilis (Proteus mirabilis; [5]): 12.5 µg/mL | MIC against C. diversus (Citrobacter diversus; [6]): 12.5 µg/mL | MIC against M. catarrhalis (Moraxella catarrhalis; [7]): 12.5 µg/mL | MIC against E. coli BL21 (E. coli BL21; [8]): 25 µg/mL | MIC against A. hydrophila (Aeromonas hydrophila; [9]): 12.5 µg/mL | MIC against S. marcescens (Serratia marcescens; [10]): 25 µg/mL

PRT586 (CPCPEGPGSQRHFATSCHQDEYSQQIVCHCRAGYTGLRCEACAPGHFGDPSRPGGRCQL; listed as Homo sapiens)
MIC against P. aeruginosa (Pseudomonas aeruginosa; 96-well plate, 37° C., 10 h): 12.5 µg/mL | MIC against E. cloacae (Enterobacter cloacae; 96-well plate, 37° C., 10 h): 12.5 µg/mL | MIC (E. coli DH5α): 12.5 µg/mL | MIC against P. vulgaris (Proteus vulgaris; 96-well plate, 37° C., 10 h): 25 µg/mL | MIC against K. pneumonia (Klebsiella pneumonia; 96-well plate, 37° C., 10 h): 50 µg/mL | MIC against P. mirabilis (Proteus mirabilis; 96-well plate, 37° C., 10 h): 50 µg/mL | MIC against C. diversus (Citrobacter diversus; 96-well plate, 37° C., 10 h): 12.5 µg/mL | MIC against M. catarrhalis (Moraxella catarrhalis; 96-well plate, 37° C., 10 h): 25 µg/mL | MIC against E. coli BL21 (E. coli BL21; 96-well plate, 37° C., 10 h): 50 µg/mL | MIC against A. hydrophila (Aeromonas hydrophila; 96-well plate, 37° C., 10 h): 50 µg/mL | MIC against S. marcescens (Serratia marcescens; 96-well plate, 37° C., 10 h): 12.5 µg/mL
